No end group written: not given here.
Key:
[1] = test system: retinal ganglion cells (RGCs); assay: RGC survival after optic nerve crush (FluroGold backfilling, retinal wholemounts); format: in vivo, rat; details: weekly intravitreal injection, 2.68 nM versus 1.88 nM, 21 days after ONC
Method: (§1) In a separate set of experiments comprising the same treatment groups, 6 rats/treatment (i.e. 12 eyes/optic nerves/treatment) were used to evaluate RGC axon regeneration by immunostaining with growth-associated protein-43 (GAP-43) in the optic nerve.
In further experiments, 12 rats (24 eyes/optic nerves)/treatment received 1.88 nM PEDF-34 eye drops daily. Six rats (12 eyes)/treatment were used to assess RGC survival at 21 days using FG backfilling, whilst the remaining 6 rats (12 eyes/optic nerves)/treatment were used to evaluate RGC axon regeneration at 21 days by GAP-43 immunohistochemistry. […]
Nineteen days after ONC, FG (Cambridge Biosciences, Cambridge, UK) was injected into the optic nerve, between the lamina cribrosa and the ONC site ([Vigneswara et al., 2013, 2014]). […] The identity of individual retinae was anonymised by a second investigator before image capture using a Zeiss epifluorescent microscope and the number of FG^+ RGCs counted in ImagePro Version 6.0 (Media Cybernetics) from captured images of 12 rectangular areas, 3 from each quadrant, placed at radial distances from the centre of the optic disc of the inner (1/6 eccentricity), midperiphery (1/2 eccentricity) and outer retina (5/6 eccentricity). The mean densities of FG^+ RGCs/mm^2 for each retina were determined.

RGC axons = assay: RGC axon regeneration after optic nerve crush (GAP-43 immunohistochemistry of optic nerve); format: in vivo, rat; details: 21 days after ONC; for number of GAP-43+ axons distal from the lesion site: daily eye drops 1.88 nM; for number of GAP-43+ axons in distal optic nerve stump: weekly intravitreal 1.88 nM
Method: as §1
In further experiments, 12 rats (24 eyes/optic nerves)/treatment received 1.88 nM PEDF-34 eye drops daily. Six rats (12 eyes)/treatment were used to assess RGC survival at 21 days using FG backfilling, whilst the remaining 6 rats (12 eyes/optic nerves)/treatment were used to evaluate RGC axon regeneration at 21 days by GAP-43 immunohistochemistry.
All animal procedures were licenced and approved by the United Kingdom Home Office and the University of Birmingham ethical review committee and conformed to the Federation of European Laboratory Animal Associations (FELASA) guidelines. Optic nerves were exposed surgically in anaesthetised adult female Sprague–Dawley rats (170–220 g) through a supraorbital approach and crushed bilaterally using calibrated watchmakers forceps, 2 mm from the lamina cribrosa as described by us previously ([Vigneswara et al., 2013, 2014]).
Either PBS, or 0.268, 0.67, 1.34, 1.88, or 2.68 nM PEDF dissolved in 5 μl of sterile PBS was injected intravitreally immediately after ONC (0 days) and repeated at 7 and 14 days after ONC with the same doses of PEDF. […] Animals survived for 19 days before FG back-labelling and killing by rising CO2 levels 2 days later, and eyes/optic nerves harvested for retinal FG wholemounts.
Animals were killed with an overdose of CO2 and intracardially perfused with 4% formaldehyde, eyes and optic nerves were immersion fixed in 4% formaldehyde for a further 2 h before cryoprotection in a graded series of sucrose. Eyes and optic nerves were embedded in optimal cutting temperature (OCT) compound (Raymond A. Lamb, Eastbourne, UK) and stored at − 80 °C. Subsequently, 15 μm-thick parasagittal eye or longitudinal optic nerve sections were cut using a cryostat (Brights Instruments, Huntingdon, UK), adhered onto glass slides and stored at − 20 °C until required.
Immunohistochemistry was performed as described by us previously ([Vigneswara et al., 2013, 2014]). Briefly, sections were thawed, washed at RT in PBS and permeabilised. Non-specific binding sites were blocked in 3% bovine serum albumin (BSA) containing 0.1% Triton X-100 and then sections were incubated in primary antibody diluted in PBS containing 3% BSA and 0.05% Tween-20, overnight at 4 °C (16–18 h). Monoclonal anti-GAP-43 antibody (1:500 dilution; Invitrogen) stained regenerating axons in optic nerve sections (Table 1). […] Sections were then washed in PBS and incubated with either Alexa Fluor 488 or Texas Red-labelled secondary antibodies (1:400 dilution; Invitrogen) for 1 h at RT, washed in PBS, mounted in Vectamount containing DAPI (Vector Laboratories) and examined with a Zeiss Axioplan 2 fluorescent microscope, equipped with an AxioCam HRc camera and Axiovision software. The negative control sections were used to set the background threshold levels of fluorescence before image capture.
Regenerating axons in the optic nerve were quantified using previously published methods ([Leon et al., 2000; Lorber et al., 2009; Vigneswara et al., 2013, 2014]). […] Briefly, an observer blinded to the identity of the slides […] through each nerve (n = 6 rats/12 optic nerves/treatment).

Sequence: DPFFKVPVNKLAAAVSNFGYDLYRVRSSTSPTTN [PEDF-34]
- RGC survival on increasing the dose [1]: did not improve
- number of GAP-43+ axons distal from the lesion site (RGC axons; 200 μm distal, n = 6 rats/12 optic nerves): 4049 ± 355 axons
- number of GAP-43+ axons distal from the lesion site (RGC axons; 500 μm distal): 2893 ± 315 axons
- number of GAP-43+ axons distal from the lesion site (RGC axons; 1000 μm distal): 2043 ± 120 axons
- number of GAP-43+ axons distal from the lesion site (RGC axons; 1500 μm distal): 1285 ± 126 axons
- number of GAP-43+ axons distal from the lesion site (RGC axons; 2000 μm distal): 884 ± 139 axons
- number of GAP-43+ axons distal from the lesion site (RGC axons; 2500 μm distal): 582 ± 155 axons
- number of GAP-43+ axons in distal optic nerve stump (RGC axons; 200 μm from the lesion site, n = 6 rats/12 optic nerves): 2038 ± 234 axons
- number of GAP-43+ axons in distal optic nerve stump (RGC axons; 500 μm from the lesion site): 1733 ± 237 axons
- number of GAP-43+ axons in distal optic nerve stump (RGC axons; 1000 μm from the lesion site): 1462 ± 175 axons
- number of GAP-43+ axons in distal optic nerve stump (RGC axons; 1500 μm from the lesion site): 945 ± 100 axons
- number of GAP-43+ axons in distal optic nerve stump (RGC axons; 2000 μm from the lesion site): 79 ± 44 axons
- time to detection in vitreous body: < 30 min

From paper PMC4604765, “Eye drop delivery of pigment epithelium-derived factor-34 promotes retinal ganglion cell neuroprotection and axon regeneration” (Molecular and Cellular Neurosciences, 2015)
